Results from patent US20200246317A1, “METHODS OF TREATING DIABETIC NEUROPATHY WITH A THIAZOLINE ANTI-HYPERALGESIC AGENT” (CERSCI THERAPEUTICS, INC., priority 2019, published 2020).
Where a name gives a salt, the structure may show the parent alone.

Experiments:
[1] = Gravimetric Vapor Sorption (GVS); format: physicochemical
Excerpt: The sample is hygroscopic.

[2] = Stability of dose formulations for in vitro genetic toxicology assays; format: physicochemical; settings: 0.001 to 50 mg/mL
Description: In addition, formulation analysis for in vitro genetic toxicology studies was performed using a validated HPLC/UV analytical method (2750-001-001 Dose Formulation Method No. 2) with linearity over a range of 0.001 to 50 mg/mL. Dose formulations for in vitro assays were stable at room temperature for up to 1 day and when stored frozen at −20° C. for up to 45 days.

[3] = test system: STZ-induced mechanical allodynia; assay: Diabetic neuropathy model of FIG. 10 (STZ, mechanical hypersensitivity); format: in vivo, mice; settings: STZ on day −7
Description: Streptozotocin (STZ) destroys insulin-producing cells and generates a diabetic phenotype in mice. Animals were dosed with STZ on day −7. By day 0, animals are hyperglycemic and hyperalgesic (day 0 BL).

[4] = test system: methylglyoxal-induced diabetic neuropathy; assay: Rat model of diabetic neuropathy, methylglyoxal-induced; format: in vivo; settings: methylglyoxal-induced (overview)
[5] = test system: models of painful diabetic neuropathy; assay: Models of painful diabetic neuropathy (overview); format: in vivo; settings: upon repeated dosing
[6] = test system: hypersensitivity caused by an injury/insult such as an incision or irritant; assay: Hypersensitivity caused by an injury/insult (incision or irritant); settings: in vivo
[7] = Chemical-based assays of peroxynitrite (PN) oxidation (luminol); format: biochemical
[8] = test system: lactoperoxidase oxidation (mediated by peroxide); assay: Lactoperoxidase oxidation (mediated by peroxide); format: biochemical; settings: physiological conditions (neutral pH)
[9] = Rat brain distribution and pharmacokinetic study; format: in vivo
Excerpt: A rat brain distribution study performed in order to determine standard pharmacokinetic parameters and to assess the brain penetration properties of Compound 1 administered orally and intravenously.

[10] = Pharmacokinetics in dog; format: in vivo
Description: Similar conditions were used to validate a bioanalytical method in dog plasma also using 50 μL of plasma. In both assays, a deuterated (Compound 1-d4) internal standard was used.

[11] = In vivo epimerization by chiral methods
[12] = Stability in hepatocytes, rat; format: in vitro ADME
[13] = Stability in hepatocytes, dog; format: in vitro ADME
[14] = Stability in hepatocytes, human; format: in vitro ADME
[15] = Excretion in rats; format: in vivo, rat
[16] = target: T1, OAT1 (Homo sapiens, UniProt Q4U2R8); assay: Inhibition of transporters, OAT1 (HEK293 cells); format: in vitro ADME
T1 construct: expressed in transfected cells; host or cells: HEK293 cells
T1 sequence (Q4U2R8 1-563): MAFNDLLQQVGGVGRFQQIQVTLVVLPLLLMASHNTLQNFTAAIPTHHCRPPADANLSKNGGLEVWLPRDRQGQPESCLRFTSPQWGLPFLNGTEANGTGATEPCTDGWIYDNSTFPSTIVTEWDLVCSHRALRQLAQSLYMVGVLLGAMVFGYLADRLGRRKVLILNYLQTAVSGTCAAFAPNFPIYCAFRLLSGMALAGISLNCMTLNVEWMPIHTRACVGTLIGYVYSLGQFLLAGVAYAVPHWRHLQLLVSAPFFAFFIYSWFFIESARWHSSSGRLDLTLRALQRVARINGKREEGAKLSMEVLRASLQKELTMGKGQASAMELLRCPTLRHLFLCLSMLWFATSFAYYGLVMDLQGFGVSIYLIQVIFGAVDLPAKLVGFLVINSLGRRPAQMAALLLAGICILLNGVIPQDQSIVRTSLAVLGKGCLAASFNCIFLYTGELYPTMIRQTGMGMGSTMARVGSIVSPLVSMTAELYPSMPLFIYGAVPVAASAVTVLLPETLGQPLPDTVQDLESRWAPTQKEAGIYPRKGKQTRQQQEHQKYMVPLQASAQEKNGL

[17] = target: T2, OAT3 (Homo sapiens, UniProt Q8TCC7); assay: Inhibition of transporters, OAT3 (HEK293 cells); format: in vitro ADME
T2 construct: expressed in transfected cells; host or cells: HEK293 cells
T2 sequence (Q8TCC7 1-542): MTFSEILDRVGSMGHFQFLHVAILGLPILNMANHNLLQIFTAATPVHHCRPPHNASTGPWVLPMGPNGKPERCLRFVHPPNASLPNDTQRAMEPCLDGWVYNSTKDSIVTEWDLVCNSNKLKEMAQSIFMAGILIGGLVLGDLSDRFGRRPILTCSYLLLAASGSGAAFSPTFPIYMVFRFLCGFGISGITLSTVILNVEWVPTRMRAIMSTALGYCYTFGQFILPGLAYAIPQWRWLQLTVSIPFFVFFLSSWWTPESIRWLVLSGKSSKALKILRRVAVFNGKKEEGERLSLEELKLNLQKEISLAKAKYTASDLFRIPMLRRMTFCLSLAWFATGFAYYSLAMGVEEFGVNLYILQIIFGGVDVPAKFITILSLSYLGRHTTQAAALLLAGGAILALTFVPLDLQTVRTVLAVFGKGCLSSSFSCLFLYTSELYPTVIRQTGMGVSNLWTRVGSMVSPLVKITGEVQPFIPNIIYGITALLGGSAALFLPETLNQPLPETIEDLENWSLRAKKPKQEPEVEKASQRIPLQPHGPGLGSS

CC1(C)SC(Nc2ccccc2O)=N[C@@H]1C(=O)O [Compound 1, (R)-2-(2-hydroxyphenylamino)-5,5-dimethyl-4,5-dihydrothiazole-4-carboxylic acid mono-hydrochloride]
hygroscopicity [1]: hygroscopic
stability of dose formulations for in vitro assays, time stable ([2]; room temperature): up to 1 day
stability of dose formulations for in vitro assays, time stable ([2]; stored frozen at −20° C.): up to 45 days
effect on STZ-induced mechanical allodynia [3]: blocks STZ-induced mechanical allodynia
effect on allodynia [4]: alleviates allodynia
effect on allodynia [5]: reverses allodynia
reversal of hypersensitivity [6]: complete reversal of hypersensitivity
PN-mediated oxidation of small-molecule organic substrates such as luminol [7]: inhibits PN-mediated oxidation
removal of peroxynitrite [8]: catalytically remove peroxynitrite
distribution to tissues and brain ([9]; overview): distributes to tissues but not to brain to an appreciable extent
bioavailability after oral administration ([9]; rat): bioavailable
elimination from the systemic circulation ([9]; rats): moderate rate
Oral bioavailability ([9]; rats, 30 mg/kg oral dose): 111%
oral absorption ([9]; rats, 30 mg/kg oral dose): rapidly and completely absorbed
peak plasma concentration ([9]; rats, 30 mg/kg oral dose): 9 µg/mL
terminal half-life ([9]; rats, 30 mg/kg oral dose): 1.6 h
time to peak plasma concentration ([9]; rats, 30 mg/kg oral dose): ≤ 1 h
bioavailability after oral administration [10]: bioavailable
epimerization in vivo [11]: no epimerization
stability in hepatocytes [12]: stable
stability in hepatocytes [13]: stable
stability in hepatocytes [14]: stable
form excreted into urine and feces [15]: primarily as a sulfate conjugate
inhibition of OAT1 (in words) [16]: does not inhibit
inhibition of OAT3 (in words) [17]: weakly inhibits
